For one compound, Activity, inhibition and IC50 results are on record in ChEMBL document CHEMBL4411288, “Design, synthesis and biological evaluation of novel 7-amino-[1,2,4]triazolo[4,3-f]pteridinone, and 7-aminotetrazolo[1,5-f]pteridinone derivative as potent antitumor agents” (Eur J Med Chem, 2019).

SMILES strings stand for the structures. Active and inactive are the calls of the source. The calls are words filed in the database; no cut-off is given here.

Assay [1] has as its system A549. Nature of the assay: Antimigratory activity in human A549 cells assessed as wound healing at 0.2 uM after 36 hrs by fluorescence microscopic method (reference value: 100%). Type of assay: functional.
Assay [2] deals with A549. Put plainly: Cell cycle arrest in human A549 cells assessed as accumulation at G2 phase at 0.2 uM after 24 hrs by propidium iodide staining based flow cytometric analysis (reference value: 6.73%). Type of assay: functional.
Assay [3] has as its system A549. Nature of the assay: Cell cycle arrest in human A549 cells assessed as accumulation at G2 phase at 5 uM after 24 hrs by propidium iodide staining based flow cytometric analysis (reference value: 6.73%). Type of assay: functional. (In general: A flow cytometer gives signals particle by particle.)
Assay [4] has as its system A549. Nature of the assay: Antimigratory activity in human A549 cells assessed as inhibition of wound healing up to 36 hrs by fluorescence microscopic method. Type of assay: functional, cell-based.
Assay [5] relates to A549. Nature of the assay: Cell cycle arrest in human A549 cells assessed as accumulation at G1 phase at 0.2 uM after 24 hrs by propidium iodide staining based flow cytometric analysis (reference value: 63.34%). Type of assay: functional.
Assay [6] has as its system A549. Put plainly: Antimigratory activity in human A549 cells assessed as wound healing at 0.2 uM after 24 hrs by fluorescence microscopic method (reference value: 58.5%). Type of assay: functional.
Assay [7] concerns A549. Put plainly: Antimigratory activity in human A549 cells assessed as wound healing at 1 uM after 24 hrs by fluorescence microscopic method (reference value: 58.5%). Type of assay: functional.
The subject of assay [8] is A549. Nature of the assay: Induction of apoptosis in human A549 cells assessed as late apoptotic cells at 5 uM after 24 hrs by acridine orange/ethidium bromide staining-based fluorescence microscopic method. Type of assay: functional, cell-based.
The subject of assay [9] is A549. Put plainly: Antimigratory activity in human A549 cells assessed as wound healing at 0.2 uM after 12 hrs by fluorescence microscopic method (reference value: 26.2%). Type of assay: functional.
Assay [10] concerns A549. Nature of the assay: Cell cycle arrest in human A549 cells assessed as accumulation at G2 phase at 1 uM after 24 hrs by propidium iodide staining based flow cytometric analysis (reference value: 6.73%). Type of assay: functional.
For a further assay, the system named is PC-3. Put plainly: Cytotoxicity against human PC3 cells assessed as reduction in cell viability after 72 hrs by MTT assay. Type of assay: functional, cell-based. Conditions: PC-3, 72 h.
In assay [11] the test system is A549. Nature of the assay: Cell cycle arrest in human A549 cells assessed as accumulation at S phase at 5 uM after 24 hrs by propidium iodide staining based flow cytometric analysis (reference value: 29.93%). Type of assay: functional.
Assay [12] concerns A549. Nature of the assay: Cell cycle arrest in human A549 cells assessed as accumulation at S phase at 0.2 uM after 24 hrs by propidium iodide staining based flow cytometric analysis (reference value: 29.93%). Type of assay: functional.
Assay [13] concerns A549. Nature of the assay: Antimigratory activity in human A549 cells assessed as wound healing at 1 uM after 12 hrs by fluorescence microscopic method (reference value: 26.2%). Type of assay: functional.
The test system of assay [14] is A549. Put plainly: Cell cycle arrest in human A549 cells assessed as accumulation at G1 phase at 5 uM after 24 hrs by propidium iodide staining based flow cytometric analysis (reference value: 63.34%). Type of assay: functional.
The test system of assay [15] is A549. Put plainly: Induction of apoptosis in human A549 cells assessed as late apoptotic cells at 1 uM after 24 hrs by acridine orange/ethidium bromide staining-based fluorescence microscopic method. Type of assay: functional, cell-based.
Assay [16] concerns the target Serine/threonine-protein kinase PLK1 (Homo sapiens) (UniProt P53350). Put plainly: Inhibition of recombinant human N-terminal His6-tagged PLK1 expressed in baculovirus infected Sf21 insect cells at 1 uM using FAM-labelled peptide as substrate preincubated for 10 mins followed by substrate addition measured after 1 hr relative to control.
The test system of assay [17] is A549. Nature of the assay: Cell cycle arrest in human A549 cells assessed as accumulation at G1 phase at 1 uM after 24 hrs by propidium iodide staining based flow cytometric analysis (reference value: 63.34%). Type of assay: functional.
The subject of assay [18] is A549. Put plainly: Antimigratory activity in human A549 cells assessed as wound healing at 1 uM after 36 hrs by fluorescence microscopic method (reference value: 100%). Type of assay: functional.
The test system of assay [19] is A549. Nature of the assay: Cytotoxicity against human A549 cells assessed as reduction in cell viability after 72 hrs by MTT assay. Type of assay: functional, cell-based. Conditions: A549, 72 h. For orientation: Formazan colour is commonly taken as a measure of viable cells.
In a further assay the test system is MDA-MB-231. Put plainly: cells. Conditions: Homo sapiens, MDA-MB-231, 72 h.
A further assay deals with MCF7. Put plainly: cells. Conditions: Homo sapiens, MCF7, 72 h.
The subject of assay [20] is A549. Put plainly: Cell cycle arrest in human A549 cells assessed as accumulation at S phase at 1 uM after 24 hrs by propidium iodide staining based flow cytometric analysis (reference value: 29.93%). Type of assay: functional.
A further assay deals with HCT-116. Put plainly: Cytotoxicity against human HCT116 cells assessed as reduction in cell viability after 72 hrs by MTT assay. Type of assay: functional, cell-based. Conditions: HCT-116, 72 h.

Sequence of Serine/threonine-protein kinase PLK1 (Homo sapiens) (P53350 whole entry): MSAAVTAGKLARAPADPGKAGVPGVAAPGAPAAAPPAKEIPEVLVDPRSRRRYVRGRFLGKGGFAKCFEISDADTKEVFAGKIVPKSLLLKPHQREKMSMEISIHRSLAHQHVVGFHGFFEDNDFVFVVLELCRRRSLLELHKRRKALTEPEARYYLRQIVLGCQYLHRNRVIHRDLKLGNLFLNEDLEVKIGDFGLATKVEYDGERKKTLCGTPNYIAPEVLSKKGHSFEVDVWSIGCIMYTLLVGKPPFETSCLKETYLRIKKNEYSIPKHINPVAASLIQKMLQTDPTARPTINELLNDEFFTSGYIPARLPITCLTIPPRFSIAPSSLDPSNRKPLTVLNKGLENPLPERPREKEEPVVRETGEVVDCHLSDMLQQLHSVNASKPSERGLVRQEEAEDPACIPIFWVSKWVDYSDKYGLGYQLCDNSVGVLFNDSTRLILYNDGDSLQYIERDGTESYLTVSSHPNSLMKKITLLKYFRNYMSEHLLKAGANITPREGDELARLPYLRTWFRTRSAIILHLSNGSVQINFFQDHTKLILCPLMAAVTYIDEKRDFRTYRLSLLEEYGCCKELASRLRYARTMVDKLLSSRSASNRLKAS
Description for MCF7: Cytotoxicity against human MCF7 cells assessed as reduction in cell viability after 72 hrs by MTT assay
Description for MDA-MB-231: Cytotoxicity against human MDA-MB-231 cells assessed as reduction in cell viability after 72 hrs by MTT assay

In the case of `Cc1nnc2c(=O)n(C3CCCC3)c3nc(Nc4ccc(N5CC(C)NC(C)C5)cc4)ncc3n12` (centres undefined), the Activity is reported as 51.4% in the assay with A549 [1]; 4.55% in the assay on A549 [2]; 4.32% in the assay with A549 [3]; 74.99% in the assay with A549 [5]; 33.7% in the assay with A549 [6]; 27.8% with A549 [7]. Further, the Activity amounted to 25.1% in the assay on A549 [9]; 5.64% with A549 [10]; 13.37% with A549 [11]; 20.46% with A549 [12]; 24.4% in the assay on A549 [13]; 82.32% in the assay on A549 [14]. In addition, the Activity is given as 79.82% in the assay on A549 [17], 43.1% in the assay with A549 [18] and 14.54% with A549 [20]. Also, the inhibition result in the assay with A549 [4] was “Dose-dependent effect”; in [16], 86.4%. Besides, the outcome in the assay with A549 [8] and in the assay with A549 [15] was Active. The concentration for half-maximal inhibition (IC50) in the assay with PC-3 came out at 510 nM; with A549 [19] it was 160 nM; with MDA-MB-231 it was 700 nM; with MCF7, 300 nM; in the assay on HCT-116, 300 nM.

By inhibition is commonly meant the change of the read-out against control, counted positive when it falls. One may read the IC50 as the concentration needed to halve the response being measured.
